Data from patent US11957696B2 (Propella Therapeutics, Inc., priority 2021, dated 2024).

Experiments:
[1] = assay type: physicochemical
Experimental: The solids were filtered and analyzed by XRD to determine the resulting form(s). The solvents used in this study include: water, acetonitrile, isopropyl ether/acetonitrile (1:4), 2-butanol/water (1:1), 1-propanol/water (1:1), t-butanol/water (1:1), ethanol/water (1:1), THF/water (1:1), acetone/water (1:1), dioxane/water (1:1), 2-butanone/water (1:1), methanol, DMF/water (1:1), ethyl acetate/water (1:1), and heptane.
A competitive study was also carried out. […] Samples were stirred for 3 days and filtered.

[2] = IM injection of aqueous suspension and vegetable oil solution of abiraterone acetate; assay type: in vivo; conditions: vegetable oil solution compared with aqueous suspension, rats
Experimental: Typically, the abiraterone prodrugs of the present disclosure are formulated as a non-aqueous solution or suspension. […] For example, as detailed herein, IM injections of an aqueous suspension and a vegetable oil solution of the abiraterone acetate prodrug were evaluated in rats. […] Accordingly, in some embodiments, the abiraterone prodrug formulations herein can include an abiraterone prodrug of the present disclosure (e.g., compound of Formula I or II) dissolved or dispersed in a pharmaceutically acceptable carrier. In some embodiments, the pharmaceutically acceptable carrier can be any suitable nonaqueous vehicle suitable for injection, such as those described in U.S. Pharmacopeia. In some embodiments, the pharmaceutically acceptable carrier can be a pharmaceutically acceptable oil, e.g., a vegetable oil, castor oil, corn oil, sesame oil, cottonseed oil, peanut oil, poppy seed oil, tea seed oil, or soybean oil. In some embodiments, the pharmaceutically acceptable oil can be oils (e.g., described herein), suitable for use as vehicles for injection, e.g., meeting the criteria as described in the corresponding U.S. Pharmacopeia monograph. In some embodiments, the pharmaceutically acceptable oil can be an oil of vegetable origin suitable for use as vehicles for injection. […]

SMILES	thermodynamic stability of polymorph [1]	blood plasma levels and duration of exposure of abiraterone [2]
CCCCCCCCCC(=O)O[C@H]1CC[C@@]2(C)C(=CC[C@@H]3[C@@H]2CC[C@]2(C)C(c4cccnc4)=CC[C@@H]32)C1 [Form A, abiraterone decanoate]	thermodynamically stable form under ambient conditions	–
CC(=O)O[C@H]1CC[C@@]2(C)C(=CC[C@@H]3[C@@H]2CC[C@]2(C)C(c4cccnc4)=CC[C@@H]32)C1 [abiraterone acetate, (3β)-17-(3-Pyridyl)androsta-5, acetate]	–	highest blood plasma levels and the longest duration of exposure
